In the NIST ThermoML archive (doi:10.1021/je400821q):

Assay: osmotic coefficient (dimensionless); mn = molality of the nth substance listed, in mol/kg
Conditions: 308.15 K, Liquid, Osmomat K-7000

C[N+](C)(C)C.[Br-] [tetramethylammonium bromide] + O
Conditions | osmotic coefficient
m1 = 0.01285 | 0.9931
m1 = 0.02557 | 0.9742
m1 = 0.03787 | 0.9583
m1 = 0.0549 | 0.948
m1 = 0.06504 | 0.94
m1 = 0.07726 | 0.9311
m1 = 0.0956 | 0.9195
m1 = 0.1326 | 0.8936
m1 = 0.1678 | 0.8796
m1 = 0.203 | 0.8696
m1 = 0.2383 | 0.8623
m1 = 0.3083 | 0.8489

CC[N+](CC)(CC)CC.[Br-] [tetraethylammonium bromide] + O
Conditions | osmotic coefficient
m1 = 0.00966 | 0.9933
m1 = 0.01943 | 0.9737
m1 = 0.03868 | 0.9492
m1 = 0.0491 | 0.9327
m1 = 0.05837 | 0.9256
m1 = 0.07077 | 0.916
m1 = 0.09678 | 0.8994
m1 = 0.1197 | 0.8851
m1 = 0.1561 | 0.869
m1 = 0.2146 | 0.85
m1 = 0.2799 | 0.8376
m1 = 0.3398 | 0.8275

C[N+](C)(C)C.[Cl-] [tetramethylammonium chloride] + O
Conditions | osmotic coefficient
m1 = 0.01861 | 0.9937
m1 = 0.03679 | 0.9747
m1 = 0.05507 | 0.958
m1 = 0.07403 | 0.9487
m1 = 0.09359 | 0.9393
m1 = 0.1112 | 0.9297
m1 = 0.1397 | 0.9173
m1 = 0.1877 | 0.8997
m1 = 0.2352 | 0.8878
m1 = 0.284 | 0.8757
m1 = 0.333 | 0.8675

CCCC[N+](CCCC)(CCCC)CCCC.[Br-] [tetrabutylammonium bromide] + O
Conditions | osmotic coefficient
m1 = 0.00627 | 0.9763
m1 = 0.0125 | 0.9517
m1 = 0.02562 | 0.9279
m1 = 0.03159 | 0.9191
m1 = 0.03774 | 0.9126
m1 = 0.04597 | 0.9006
m1 = 0.06502 | 0.8805
m1 = 0.07496 | 0.8725
m1 = 0.113 | 0.8403
m1 = 0.1459 | 0.8228
m1 = 0.1775 | 0.8131
m1 = 0.2126 | 0.8046
m1 = 0.2558 | 0.794
m1 = 0.3305 | 0.785

C[N+](C)(C)C.[I-] [tetramethylammonium iodide] + O
Conditions | osmotic coefficient
m1 = 0.01012 | 0.9766
m1 = 0.02006 | 0.9573
m1 = 0.0301 | 0.9365
m1 = 0.04063 | 0.9245
m1 = 0.04966 | 0.9108
m1 = 0.05912 | 0.8995
m1 = 0.07116 | 0.883
m1 = 0.1026 | 0.8569
m1 = 0.1286 | 0.8396
m1 = 0.1527 | 0.8277
m1 = 0.1802 | 0.8188
